Source: patent US20070088080A1, “Gsk-3 inhibitors isolated from marine organisms” (NEUROPHARMA, S.A., priority 2003, published 2007)

Legend:
[1] = system: Tau phosphorylation [pS396] in human neuroblastoma SHSY5Y cells; test: Inhibition of tau phosphorylation in SHSY5Y cells, Tau [pS396] sandwich ELISA; format: cell-based; details: at 200 μM, 24 h
Procedure: 1.1.2. Inhibition of Tau Phosphorylation Human neuroblastoma SHSY5Y cells were seeded in 96-well plates (25000 cells/well) in Dulbecco's modified Eagle's medium (DMEM) supplemented with 10% fetal calf serum. One day later, cells were treated with samples for 24 h at 37° C. After treatment, cultures were washed with phosphate-buffered saline and lysed for 30 min at 4° C. in 120 μl of extraction buffer (10 mM Tris-HCl, pH 7.4, 100 mM NaCl, 1 mM EDTA, 2 mM Na3VO4, 1% Triton X-100, 10% glycerol, 0.1% SDS, 0.5% Sodium deo.ycholate, 1 mM PMSF and a protease inhibitor cocktail.
The quantitative definition of phosphorylated human Tau was made taking 40 μl of the cell lysate and using a phosphorylation-specific antibody against Tau [pS396] in a sandwich ELISA. Tau phosphorylation was estimated by measuring of absorbance at 450 nm in a microtiter plate reader.

[2] = biological target: Recombinant human glycogen synthase kinase 3β (Homo sapiens, UniProt P49841); test: GSK3β inhibition, radiometric kinase assay with GS-2 peptide and 33P-ATP
Sequence of Recombinant human glycogen synthase kinase 3β (P49841 whole entry): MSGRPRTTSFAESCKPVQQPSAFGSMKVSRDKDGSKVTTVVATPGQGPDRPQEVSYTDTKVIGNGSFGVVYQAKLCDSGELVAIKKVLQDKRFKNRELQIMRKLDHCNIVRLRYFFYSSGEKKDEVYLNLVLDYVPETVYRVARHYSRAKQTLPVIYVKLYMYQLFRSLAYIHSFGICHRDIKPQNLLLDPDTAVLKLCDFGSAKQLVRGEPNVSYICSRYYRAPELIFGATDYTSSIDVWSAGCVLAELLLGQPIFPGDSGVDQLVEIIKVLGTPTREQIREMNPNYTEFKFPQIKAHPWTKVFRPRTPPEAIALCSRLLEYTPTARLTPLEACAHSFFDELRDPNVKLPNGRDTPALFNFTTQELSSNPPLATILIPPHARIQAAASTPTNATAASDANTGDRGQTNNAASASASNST
Procedure: Recombinant human glycogen synthase kinase 3B was assayed in MOPS 8 mM pH7.3, EDTA 0.2 mM, MgCl. 10 mM and sodium orthovanadate 0.25 mM in the presence of 62.5 μM of Phospho-Glycogen Synthase Peptide-2 (GS-2), 0.5 μCi γ-^33P-ATP and unlabelled ATP at a final concentration of 12.5 μM. The final assay volume was 20 μl. After incubation for 30 minutes at 30° C., 15 μl aliquots were spotted onto P81 phosphocellulose papers. Filters were washed four times for at least 10 minutes each and counted with 1.5 ml of scintillation cocktail in a scintillation counter.

| Structure (SMILES) | inhibition of tau phosphorylation, cellular assay [1] | IC50 [2] [µM] | mechanism of inhibition of GSK3β ([2]; kinetic experiments varying both ATP and inhibitor concentrations, preliminary) |
| --- | --- | --- | --- |
| CC1=C(O)[C@@H](C/C(C)=C/CC[C@H](C)/C=C/C=C(\C)CCCc2ccoc2)OC1=O [Palinurin] | significant inhibition | 4.5 | non As-competitive inhibitor |
| C/C(=C\C=C\C(C)CC/C=C(\C)CC1OC(=O)C(=O)C1=O)CCCc1ccoc1 (stereo not shown) [Tricantin] | significant inhibition | – | – |
